Measurements from patent EP4603105A1, “PHARMACEUTICAL COMPOSITION CONTAINING CYCLIC COMPOUND HAVING SELECTIVE KRAS INHIBITORY EFFECT AGAINST HRAS AND NRAS” (CHUGAI SEIYAKU KABUSHIKI KAISHA, priority 2022, dated 2024).

Experiments:
[1] = biological target: GDP-bound NRAS wild-type protein (Homo sapiens, UniProt P01111); test: Binding to NRAS by surface plasmon resonance (SPR), KD and KD ratio to KRAS; details: ratio of the KD value with respect to GDP-bound NRAS wild-type protein to the KD value with respect to KRAS
Summary of the method: (§1)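 Single-cycle kinetics on GDP-loaded biotin-Avi RAS captured to ~100–300 RU; 75 s ascending injections, 100 µL/min, 30°C. HBS pH 7.4 + 10 mM MgCl2/10 µM GDP/4% DMSO. 1:1 fit, KD.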

[2] = test system: human lung cancer strain NCI-H441; assay type: cell-based
Summary of the method: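 Proliferation was scored by […] measured after the reagent was added to cultures kept at 37°C in 5% carbon dioxide.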

[3] = biological target: HRAS wild-type protein (Homo sapiens, UniProt P01112); test: Binding to HRAS by surface plasmon resonance (SPR), KD and KD ratio to KRAS; details: ratio of the KD value with respect to HRAS wild-type protein to the KD value with respect to KRAS
Summary of the method: as §1

Sequence of GDP-bound NRAS wild-type protein (P01111 whole entry): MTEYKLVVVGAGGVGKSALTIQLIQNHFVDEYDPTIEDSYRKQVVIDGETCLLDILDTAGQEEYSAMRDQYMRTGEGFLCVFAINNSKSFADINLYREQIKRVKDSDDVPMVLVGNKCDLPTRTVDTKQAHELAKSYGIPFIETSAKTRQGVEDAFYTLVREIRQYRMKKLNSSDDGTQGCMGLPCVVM
Sequence of HRAS wild-type protein (P01112 whole entry): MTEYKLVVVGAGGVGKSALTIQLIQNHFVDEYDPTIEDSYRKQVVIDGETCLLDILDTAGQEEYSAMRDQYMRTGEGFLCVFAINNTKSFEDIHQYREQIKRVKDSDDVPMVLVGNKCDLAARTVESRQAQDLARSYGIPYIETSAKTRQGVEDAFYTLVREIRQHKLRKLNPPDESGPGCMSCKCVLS

Q: What does the source list for CCO[C@@H]1C[C@H]2C(=O)NC3(CCC3)C(=O)N(C)[C@@H](C3CCCC3)C(=O)N(C)[C@H](C(=O)N(C)C)CC(=O)N(C)[C@@H](CC3CCC3)C(=O)N[C@@H]([C@@H](C)CC)C(=O)N(C)CC(=O)N(C)[C@H]3CCCCCN(C3=O)[C@@H](Cc3ccc(C(F)(F)F)cc3)C(=O)N(C)CC(=O)N[C@@H](CCc3cc(F)c(C(F)(F)F)c(F)c3)C(=O)N2C1 [PP0668]?
A: NRAS /KRAS [1]: B (a compound having 3 or more and less than 10 is denoted as B); IC50 [2]: 22.7 nM; HRAS /KRAS [3]: B (a compound having 3 or more and less than 10 is denoted as B)

Q: What does the source list for CCO[C@@H]1C[C@H]2C(=O)NC3(CCC3)C(=O)N(C)[C@@H](C3CCCC3)C(=O)N(C)[C@H](C(=O)N(C)C)CC(=O)N(C)[C@@H](Cc3cccnc3)C(=O)N[C@@H]([C@@H](C)CC)C(=O)N(C)CC(=O)N(C)[C@H]3CCCCCN(C3=O)[C@@H](Cc3ccc(C(F)(F)F)cc3)C(=O)N(C)CC(=O)N[C@@H](CCc3cc(F)c(C(F)(F)F)c(F)c3)C(=O)N2C1 [PP0673]?
A: NRAS /KRAS [1]: B (a compound having 3 or more and less than 10 is denoted as B); IC50 [2]: 52.5 nM; HRAS /KRAS [3]: B (a compound having 3 or more and less than 10 is denoted as B)

Q: Which results are given for CCO[C@@H]1C[C@H]2C(=O)NC3(CCC3)C(=O)N(C)[C@@H](C3CCCC3)C(=O)N(C)[C@H](C(=O)N(C)C)CC(=O)N(C)[C@@H](COC)C(=O)N[C@@H]([C@@H](C)CC)C(=O)N(C)CC(=O)N(C)[C@H]3CCCCCN(C3=O)[C@@H](Cc3ccc(C(F)(F)F)cc3)C(=O)N(C)CC(=O)N[C@@H](CCc3cc(F)c(C(F)(F)F)c(F)c3)C(=O)N2C1 [PP0674]?
A: NRAS /KRAS [1]: B (a compound having 3 or more and less than 10 is denoted as B); IC50 [2]: 13.9 nM; HRAS /KRAS [3]: B (a compound having 3 or more and less than 10 is denoted as B)

Q: With CCO[C@@H]1C[C@H]2C(=O)NC3(CCC3)C(=O)N(C)[C@@H](C3CCCC3)C(=O)N(C)[C@H](C(=O)N3CCOCC3)CC(=O)N(C)[C@@H](CC)C(=O)N[C@@H]([C@@H](C)CC)C(=O)N(C)CC(=O)N(C)[C@H]3CCCCCN(C3=O)[C@@H](Cc3ccc(C(F)(F)F)cc3)C(=O)N(C)CC(=O)N[C@@H](CCc3cc(F)c(C(F)(F)F)c(F)c3)C(=O)N2C1 [PP0678] as the compound, how does the “NRAS /KRAS” value [1] read?
A: The value was “B (a compound having 3 or more and less than 10 is denoted as B)”.

Q: What about the IC50 [2] of the same compound?
A: The IC50 was 35.6 nM.

Q: And the “HRAS /KRAS” value [3]?
A: Its value is “B (a compound having 3 or more and less than 10 is denoted as B)”.

Q: For CCC[C@H]1C(=O)N[C@@H]([C@@H](C)CC)C(=O)N(C)CC(=O)N(C)[C@H]2CCCCCN(C2=O)[C@@H](Cc2ccc(C(F)(F)F)cc2)C(=O)N(C)CC(=O)N[C@@H](CCc2cc(F)c(C(F)(F)F)c(F)c2)C(=O)N2C[C@H](OCC)C[C@H]2C(=O)NC2(CCC2)C(=O)N(C)[C@@H](C2CCCC2)C(=O)N(C)[C@H](C(=O)N2CCOCC2)CC(=O)N1C [PP0679], which “NRAS /KRAS” value [1] is on record?
A: The value was “B (a compound having 3 or more and less than 10 is denoted as B)”.

Q: What about the IC50 [2] of the same compound?
A: Its IC50 is 40.2 nM.

Q: And the “HRAS /KRAS” value [3]?
A: The value was “B (a compound having 3 or more and less than 10 is denoted as B)”.

Q: With C#CC[C@H]1C(=O)N[C@@H]([C@@H](C)CC)C(=O)N(C)CC(=O)N(C)[C@H]2CCCCCN(C2=O)[C@@H](Cc2ccc(C(F)(F)F)cc2)C(=O)N(C)CC(=O)N[C@@H](CCc2cc(F)c(C(F)(F)F)c(F)c2)C(=O)N2C[C@H](OCC)C[C@H]2C(=O)NC2(CCC2)C(=O)N(C)[C@@H](C2CCCC2)C(=O)N(C)[C@H](C(=O)N2CCOCC2)CC(=O)N1C [PP0681] as the compound, how does the “NRAS /KRAS” value [1] read?
A: Its value is “B (a compound having 3 or more and less than 10 is denoted as B)”.

Q: And the IC50 [2]?
A: The IC50 was 24.2 nM.

Q: What about the “HRAS /KRAS” value [3] of the same compound?
A: The value was “B (a compound having 3 or more and less than 10 is denoted as B)”.

Q: Which “NRAS /KRAS” value [1] does the source give for CCO[C@@H]1C[C@H]2C(=O)NC3(CCC3)C(=O)N(C)[C@@H](C3CCCC3)C(=O)N(C)[C@H](C(=O)N3CCOCC3)CC(=O)N(C)[C@@H](COC)C(=O)N[C@@H]([C@@H](C)CC)C(=O)N(C)CC(=O)N(C)[C@H]3CCCCCN(C3=O)[C@@H](Cc3ccc(C(F)(F)F)cc3)C(=O)N(C)CC(=O)N[C@@H](CCc3cc(F)c(C(F)(F)F)c(F)c3)C(=O)N2C1 [PP0689] here?
A: The value was “B (a compound having 3 or more and less than 10 is denoted as B)”.

Q: And the IC50 [2]?
A: Its IC50 is 34.4 nM.

Q: What about the “HRAS /KRAS” value [3] of the same compound?
A: Its value is “B (a compound having 3 or more and less than 10 is denoted as B)”.
